Source: PubChem BioAssay AID330 (DTP/NCI, 2004)
Where “and” joins values, the source holds several entries; their conditions need not be identical. Identical values can stand only once. Toxic doses and inconclusive results are not listed.

Test system: P388 leukemia ip, CD2F1 mice, survival T/C
Assay: NCI In Vivo Anticancer Drug Screen. Data for tumor model P388 Leukemia (intraperitoneal) in CD2F1 (CDF1) mice
Conditions: endpoint: median survival time, higher = longer survival
Procedure, shortened: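 Mice carrying the transplanted tumor received test compound or vehicle. Survival was recorded in each group, and the value is the treated-group measurement divided by that of the vehicle-treated control group.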

[1] = dose: 6.25 mg/kg/injection, schedule: Q01DX009 (ip), vehicle: Klucel (hydroxypropylcellulose) (HPC)
[2] = dose: 12.5 mg/kg/injection, schedule: Q01DX009 (ip), vehicle: Klucel (hydroxypropylcellulose) (HPC)
[3] = dose: 25.0 mg/kg/injection, schedule: Q01DX009 (ip), vehicle: Klucel (hydroxypropylcellulose) (HPC)
[4] = dose: 50.0 mg/kg/injection, schedule: Q01DX009 (ip), vehicle: saline with Tween-80
[5] = dose: 100.0 mg/kg/injection, schedule: Q01DX009 (ip), vehicle: Klucel (hydroxypropylcellulose) (HPC)
[6] = dose: 200.0 mg/kg/injection, schedule: Q01DX009 (ip), vehicle: Klucel (hydroxypropylcellulose) (HPC)
[7] = dose: 200.0 mg/kg/injection, schedule: Q01DX009 (ip), vehicle: saline with Tween-80
[8] = dose: 12.5 mg/kg/injection, schedule: Q01DX009 (ip), vehicle: saline with Tween-80
[9] = dose: 25.0 mg/kg/injection, schedule: Q01DX009 (ip), vehicle: saline with Tween-80
[10] = dose: 3.12 mg/kg/injection, schedule: Q01DX009 (ip), vehicle: Klucel (hydroxypropylcellulose) (HPC)
[11] = dose: 50.0 mg/kg/injection, schedule: Q01DX009 (ip), vehicle: saline
[12] = dose: 200.0 mg/kg/injection, schedule: Q01DX009 (ip), vehicle: saline
[13] = dose: 50.0 mg/kg/injection, schedule: Q01DX005 (ip), vehicle: Klucel (hydroxypropylcellulose) (HPC)
[14] = dose: 100.0 mg/kg/injection, schedule: Q01DX005 (ip), vehicle: Klucel (hydroxypropylcellulose) (HPC)
[15] = dose: 200.0 mg/kg/injection, schedule: Q01DX005 (ip), vehicle: Klucel (hydroxypropylcellulose) (HPC)
[16] = dose: 60.0 mg/kg/injection, schedule: Q01DX005 (ip), vehicle: saline with Tween-80
[17] = dose: 120.0 mg/kg/injection, schedule: Q01DX005 (ip), vehicle: saline with Tween-80
[18] = dose: 100.0 mg/kg/injection, schedule: Q01DX009 (ip), vehicle: saline with Tween-80
[19] = dose: 50.0 mg/kg/injection, schedule: Q01DX009 (ip), vehicle: Klucel (hydroxypropylcellulose) (HPC)

Compound: O=C(O)c1c2c(nc3ccccc13)Cc1ccccc1-2
- T/C [1]: 97 % of control
- T/C (dose: 6.25 mg/kg/injection, schedule: Q01DX009 (ip), vehicle: water): 101 % of control
- T/C [2]: 98 % of control
- T/C (dose: 12.5 mg/kg/injection, schedule: Q01DX009 (ip), vehicle: water): 99 % of control and 109 % of control
- T/C [3]: 106 % of control
- T/C (dose: 25.0 mg/kg/injection, schedule: Q01DX009 (ip), vehicle: water): 104 % of control and 110 % of control and 114 % of control
- T/C [4]: 110 % of control
- T/C (dose: 50.0 mg/kg/injection, schedule: Q01DX009 (ip), vehicle: water): 115 % of control and 121 % of control
- T/C [5]: 160 % of control and 169 % of control
- T/C (dose: 100.0 mg/kg/injection, schedule: Q01DX009 (ip), vehicle: water): 166 % of control and 172 % of control
- T/C [6]: 172 % of control and 179 % of control
- T/C [7]: 181 % of control
- T/C (dose: 200.0 mg/kg/injection, schedule: Q01DX009 (ip), vehicle: water): 106 % of control

Compound: Brc1ccc(C2=CSC3=NCCN23)cc1
- T/C (dose: 1.56 mg/kg/injection, schedule: Q01DX009 (ip), vehicle: saline with Tween-80): 97 % of control
- T/C (dose: 3.12 mg/kg/injection, schedule: Q01DX009 (ip), vehicle: saline with Tween-80): 94 % of control
- T/C (dose: 6.25 mg/kg/injection, schedule: Q01DX009 (ip), vehicle: saline with Tween-80): 106 % of control and 114 % of control and 93 % of control
- T/C [8]: 100 % of control and 103 % of control and 122 % of control
- T/C (dose: 18.75 mg/kg/injection, schedule: Q01DX009 (ip), vehicle: saline with Tween-80): 93 % of control
- T/C [9]: 108 % of control and 113 % of control

Compound: ClCCn1c(CCl)nc2ccc(Cl)cc21
- T/C [10]: 93 % of control
- T/C [1]: 101 % of control
- T/C [2]: 100 % of control
- T/C [3]: 100 % of control

Compound: Clc1nc2nc(Cl)c(Cl)n2c(Cl)c1Cl
- T/C (dose: 100.0 mg/kg/injection, schedule: Q04DX002 (ip), vehicle: saline with Tween-80): 105 % of control
- T/C (dose: 200.0 mg/kg/injection, schedule: Q04DX002 (ip), vehicle: saline with Tween-80): 117 % of control

Compound: Cc1ccccc1C(=O)Nc1ccccc1-c1ccccc1
- T/C [8]: 94 % of control
- T/C [9]: 100 % of control
- T/C [4]: 106 % of control
- T/C [11]: 95 % of control
- T/C [12]: 93 % of control

Compound: Cc1ccc(S(=O)(=O)N2CCC(N)=N2)cc1
- T/C [13]: 93 % of control
- T/C [14]: 98 % of control
- T/C [15]: 90 % of control

Compound: Cn1c(=O)c2c(nc(/N=C/c3ccco3)n2C)n(C)c1=O
- T/C (dose: 100.0 mg/kg/injection, schedule: Q04DX003 (ip), vehicle: saline): 91 % of control
- T/C (dose: 200.0 mg/kg/injection, schedule: Q04DX003 (ip), vehicle: saline): 90 % of control
- T/C (dose: 400.0 mg/kg/injection, schedule: Q04DX003 (ip), vehicle: saline): 92 % of control

Compound: CN(C)Cc1[nH]c2ccccc2c1Sc1ccccc1
- T/C [16]: 100 % of control
- T/C [17]: 119 % of control

Compound: COc1cc(Nc2ccccc2)c2c(c1N)C(=O)c1ccccc1C2=O
- T/C (dose: 50.0 mg/kg/injection, schedule: Q01DX005 (ip), vehicle: saline with Tween-80): 91 % of control
- T/C (dose: 100.0 mg/kg/injection, schedule: Q01DX005 (ip), vehicle: saline with Tween-80): 88 % of control

Compound: Nc1nc(N)c2nc(CNc3ccc(C(=O)NC(CCC(=O)O)C(=O)O)cc3F)cnc2n1 (stereo not drawn)
- T/C (dose: 1.87 mg/kg/injection, schedule: Q01DX005 (ip), vehicle: saline with Tween-80): 163 % of control
- T/C (dose: 7.5 mg/kg/injection, schedule: Q01DX005 (ip), vehicle: saline with Tween-80): 183 % of control

Compound: CC(=O)CC(=O)CCCC(=O)O
- T/C [4]: 96 % of control
- T/C [18]: 99 % of control
- T/C [7]: 104 % of control

Compound: COC(=O)C1(C(=O)OC)ON1C(C)(C)C (stereo not drawn)
- T/C [13]: 100 % of control
- T/C [14]: 96 % of control
- T/C [15]: 97 % of control

Compound: C/C(C#N)=C1/Nc2ccccc2NC1=O
- T/C (dose: 25.0 mg/kg/injection, schedule: Q01DX009 (ip), vehicle: distilled water + Tween-80 + alcohol): 95 % of control
- T/C (dose: 50.0 mg/kg/injection, schedule: Q01DX009 (ip), vehicle: distilled water + Tween-80 + alcohol): 88 % of control and 92 % of control
- T/C (dose: 100.0 mg/kg/injection, schedule: Q01DX009 (ip), vehicle: distilled water + Tween-80 + alcohol): 91 % of control
- T/C (dose: 200.0 mg/kg/injection, schedule: Q01DX009 (ip), vehicle: distilled water + Tween-80 + alcohol): 100 % of control

Compound: COc1cc2oc(-c3ccc(O)cc3O)c(CC=C(C)C)c(=O)c2c(O)c1/C=C/C(C)C
- T/C (dose: 1.56 mg/kg/injection, schedule: Q01DX009 (ip), vehicle: Klucel (hydroxypropylcellulose) (HPC)): 107 % of control
- T/C [10]: 105 % of control
- T/C [1]: 100 % of control
- T/C [2]: 98 % of control

Compound: Cn1c(N)c(-n2[nH]c(=O)n(-c3ccccc3)c2=O)c(=O)n(C)c1=O
- T/C [19]: 106 % of control
- T/C [5]: 95 % of control
- T/C [6]: 98 % of control

Compound: Cc1nn(-c2ccccc2)c2oc3ccccc3c(=O)c12
- T/C (dose: 60.0 mg/kg/injection, schedule: Q01DX005 (ip), vehicle: saline): 92 % of control
- T/C (dose: 120.0 mg/kg/injection, schedule: Q01DX005 (ip), vehicle: saline): 100 % of control
- T/C (dose: 240.0 mg/kg/injection, schedule: Q01DX005 (ip), vehicle: saline): 96 % of control

Compound: C(#CC12CC3CC(CC(C3)C1)C2)C12CC3CC(CC(C3)C1)C2
- T/C [13]: 98 % of control
- T/C [14]: 92 % of control
- T/C [15]: 91 % of control

Compound: Cn1c(=O)c2c(ncn2CCSc2ncnc3nc[nH]c23)n(C)c1=O
- T/C [11]: 97 % of control
- T/C (dose: 100.0 mg/kg/injection, schedule: Q01DX009 (ip), vehicle: saline): 105 % of control
- T/C [12]: 114 % of control

Compound: COC(=O)c1c(C)ccc2c(O)c3c(cc12)C(=O)c1c2c(cc(O)c1C3=O)C1(C)OC(C)(O2)C(O)C(N(C)C)C1O (stereo not drawn)
- T/C (dose: 25.0 mg/kg/injection, schedule: Q01DX010 (ip), vehicle: saline): 100 % of control
- T/C (dose: 50.0 mg/kg/injection, schedule: Q01DX010 (ip), vehicle: saline): 100 % of control
- T/C (dose: 100.0 mg/kg/injection, schedule: Q01DX010 (ip), vehicle: saline): 100 % of control
- T/C (dose: 200.0 mg/kg/injection, schedule: Q01DX010 (ip), vehicle: saline): 100 % of control
- T/C (dose: 400.0 mg/kg/injection, schedule: Q01DX010 (ip), vehicle: saline): 100 % of control

Compound: Cc1c(Cl)cccc1NC(=O)NNC(=O)c1ccncc1
- T/C [19]: 90 % of control
- T/C [5]: 88 % of control
- T/C [6]: 88 % of control

Compound: CC(=Nc1ccc(N(C)C)cc1)c1ccccc1
- T/C [16]: 98 % of control
- T/C [17]: 98 % of control

Compound: COc1cccc(C=Nc2ccccc2O)c1O.[O]=[V]
- T/C [1]: 98 % of control and 107 % of control
- T/C [2]: 106 % of control and 115 % of control
- T/C [3]: 100 % of control and 118 % of control
- T/C [19]: 91 % of control

Compound: COc1cccc(/C=N/C(=S)NC2(C)C3CCC(C3)C2(C)C)c1O (stereo not drawn)
- T/C (dose: 12.5 mg/kg/injection, schedule: Q01DX009 (ip), vehicle: olive oil, sesame oil, peanut oil): 105 % of control
- T/C (dose: 25.0 mg/kg/injection, schedule: Q01DX009 (ip), vehicle: olive oil, sesame oil, peanut oil): 102 % of control
- T/C (dose: 50.0 mg/kg/injection, schedule: Q01DX009 (ip), vehicle: olive oil, sesame oil, peanut oil): 99 % of control
- T/C (dose: 100.0 mg/kg/injection, schedule: Q01DX009 (ip), vehicle: olive oil, sesame oil, peanut oil): 97 % of control
- T/C (dose: 200.0 mg/kg/injection, schedule: Q01DX009 (ip), vehicle: olive oil, sesame oil, peanut oil): 94 % of control
- T/C (dose: 400.0 mg/kg/injection, schedule: Q01DX009 (ip), vehicle: olive oil, sesame oil, peanut oil): 97 % of control

Compound: CC(=O)OC1OC(CS[As](C)CCO)C(OC(C)=O)C(OC(C)=O)C1OC(C)=O (stereo not drawn)
- T/C [19]: 110 % of control
- T/C [5]: 112 % of control
- T/C [6]: 112 % of control

Compound: CC(=O)c1ccc(NC(O)C(Cl)(Cl)Cl)cc1 (stereo not drawn)
- T/C [9]: 99 % of control
- T/C [4]: 96 % of control
- T/C [18]: 103 % of control
- T/C [7]: 107 % of control

Compound: c1ccc(-c2nc3cc4ccccc4cc3nc2-c2ccccc2)cc1
- T/C [13]: 105 % of control
- T/C [14]: 100 % of control
- T/C [15]: 99 % of control
